Measured values as given in the NIST ThermoML archive (doi:10.1016/j.fluid.2010.08.022).

Details: 101.33 kPa; for mass density: Vibrating tube method; for speed of sound: Sing-around technique in a fixed-path interferometer; for viscosity: Visco Elite L rheometer

CCCCCCCC/C=C\CCCCCCCC(=O)O.NCCO [2-hydroxyethylammonium oleate]
Details | mass density [kg/m3] | speed of sound [m/s] | viscosity [mPa·s]
327.41 K, Liquid crystal of unknown type | 917.867 | – | –
327.66 K, Liquid crystal of unknown type | 917.707 | 1414.3 | –
327.91 K, Liquid crystal of unknown type | 917.547 | 1413.5 | –
328.16 K, Liquid crystal of unknown type | 917.387 | 1412.7 | –
328.41 K, Liquid crystal of unknown type | 917.226 | 1412 | –
328.66 K, Liquid crystal of unknown type | 917.066 | 1411.2 | –
328.9 K, Liquid crystal of unknown type | 916.907 | 1410.4 | –
329.16 K, Liquid crystal of unknown type | 916.746 | 1409.6 | –
329.41 K, Liquid crystal of unknown type | 916.585 | 1408.9 | –
329.66 K, Liquid crystal of unknown type | 916.424 | 1408.1 | –
329.91 K, Liquid crystal of unknown type | 916.265 | 1407.3 | –
330.16 K, Liquid crystal of unknown type | 916.103 | 1406.5 | –
330.41 K, Liquid crystal of unknown type | 915.943 | 1405.8 | –
330.66 K, Liquid crystal of unknown type | 915.784 | 1405 | –
330.91 K, Liquid crystal of unknown type | 915.622 | 1404.2 | –
331.16 K, Liquid crystal of unknown type | 915.461 | 1403.5 | –
331.4 K, Liquid crystal of unknown type | 915.3 | 1402.7 | –
331.66 K, Liquid crystal of unknown type | 915.14 | 1401.9 | –
331.91 K, Liquid crystal of unknown type | 914.98 | 1401.2 | –
332.16 K, Liquid crystal of unknown type | 914.818 | 1400.4 | –
332.41 K, Liquid crystal of unknown type | 914.658 | 1399.6 | –
332.66 K, Liquid crystal of unknown type | 914.496 | 1398.8 | –
332.91 K, Liquid crystal of unknown type | 914.336 | 1398.1 | –
333.16 K, Liquid crystal of unknown type | 914.175 | 1397.3 | –
333.41 K, Liquid crystal of unknown type | 914.015 | 1396.5 | –
333.66 K, Liquid crystal of unknown type | 913.853 | 1395.7 | –
333.91 K, Liquid crystal of unknown type | 913.692 | 1395 | –
334.16 K, Liquid crystal of unknown type | 913.531 | 1394.2 | –
334.41 K, Liquid crystal of unknown type | 913.369 | 1393.4 | –
334.66 K, Liquid crystal of unknown type | 913.208 | 1392.6 | –
334.91 K, Liquid crystal of unknown type | 913.046 | 1391.9 | –
335.16 K, Liquid crystal of unknown type | 912.885 | 1391.1 | –
335.4 K, Liquid crystal of unknown type | 912.725 | 1390.3 | –
335.66 K, Liquid crystal of unknown type | 912.564 | 1389.6 | –
335.91 K, Liquid crystal of unknown type | 912.403 | 1388.8 | –
336.16 K, Liquid crystal of unknown type | 912.241 | 1388 | –
336.41 K, Liquid crystal of unknown type | 912.079 | 1387.2 | –
336.66 K, Liquid crystal of unknown type | 911.917 | 1386.5 | –
336.91 K, Liquid crystal of unknown type | 911.757 | 1385.8 | –
337.16 K, Liquid crystal of unknown type | 911.595 | 1385 | –
337.41 K, Liquid crystal of unknown type | 911.432 | 1384.2 | –
337.66 K, Liquid crystal of unknown type | 911.272 | 1383.5 | –
337.91 K, Liquid crystal of unknown type | 911.11 | 1382.7 | –
338.15 K, Liquid crystal of unknown type | – | – | 225.9
338.16 K, Liquid crystal of unknown type | 910.95 | 1381.9 | –
338.41 K, Liquid crystal of unknown type | 910.787 | 1381.2 | –
338.66 K, Liquid crystal of unknown type | 910.626 | 1380.4 | –
338.9 K, Liquid crystal of unknown type | 910.464 | 1379.7 | –
339.16 K, Liquid crystal of unknown type | 910.301 | 1378.9 | –
339.41 K, Liquid crystal of unknown type | 910.142 | 1378.1 | –
339.66 K, Liquid crystal of unknown type | 909.978 | 1377.4 | –
339.9 K, Liquid crystal of unknown type | 909.815 | 1376.6 | –
340.16 K, Liquid crystal of unknown type | 909.655 | 1375.9 | –
340.4 K, Liquid crystal of unknown type | 909.492 | 1375.1 | –
340.66 K, Liquid crystal of unknown type | 909.33 | 1374.4 | –
340.91 K, Liquid crystal of unknown type | 909.169 | 1373.6 | –
341.16 K, Liquid crystal of unknown type | 909.006 | 1372.9 | –
341.41 K, Liquid crystal of unknown type | 908.843 | 1372.1 | –
341.66 K, Liquid crystal of unknown type | 908.682 | 1371.3 | –
341.9 K, Liquid crystal of unknown type | 908.521 | 1370.6 | –
342.16 K, Liquid crystal of unknown type | 908.356 | 1369.8 | –
342.41 K, Liquid crystal of unknown type | 908.195 | 1369.1 | –
342.65 K, Liquid crystal of unknown type | 908.033 | 1368.3 | –
342.9 K, Liquid crystal of unknown type | 907.872 | 1367.6 | –
343.15 K, Liquid crystal of unknown type | 907.717 | 1366.9 | –
348.15 K, Liquid crystal of unknown type | – | – | 129.1
353.15 K, Liquid crystal of unknown type | – | – | 97.5
358.15 K, Liquid crystal of unknown type | – | – | 79.2
368.15 K, Liquid | – | – | 50.5
